The values below come from ChEMBL document CHEMBL1914304 (J Med Chem, 2011).

In one data set the test system is BJ. The data set can be described thus: Cytotoxicity against human BJ cells after 72 hrs by luminescence assay. Format: cell-based.
A short description of data set [1]: Selectivity ratio of EC50 for human HepG2 cells to EC50 for Plasmodium falciparum.
For the next data set, the system named is Raji. The data set is described as follows: Cytotoxicity against human Raji cells after 72 hrs by luminescence assay. The class given is cell-based.
The next data set relates to HepG2. The data set is described as follows: Cytotoxicity against human HepG2 cells after 72 hrs by luminescence assay. As to conditions: hepg2, 72 h. The class given is cell-based.
A further data set concerns HEK293. The data set can be described thus: Cytotoxicity against human HEK293 cells after 72 hrs by luminescence assay. As to conditions: hek293, 72 h. Format: cell-based.

`Cl.O=C(/C=C/c1ccc(F)cc1)c1ccccc1O`: the Activity entry in the data set with BJ, in the data set with Raji, in the data set on HepG2 and in the data set on HEK293 was “Non-toxic” in each case. The selectivity ratio in data set [1] is more than 10.
Regarding `Cl.O=C(CCc1ccccc1)c1ccccc1OCC(O)CN1CCC(O)(c2ccc(Cl)cc2)CC1` (racemic), the Activity result in the data set on BJ, in the data set with Raji, in the data set on HepG2 and in the data set on HEK293 was “Non-toxic” in each case. Further, the selectivity ratio in data set [1] is more than 10.
With `Cl.O=C(CCc1ccc(F)cc1)c1ccccc1OCC(O)CN1CCN(c2ccccc2Cl)CC1` (racemic), the Activity result in the data set on BJ, with Raji, in the data set on HepG2 and with HEK293 was “Non-toxic” each time. The selectivity ratio in data set [1] was more than 10.
For `CCCN(CCC)CC(O)COc1ccc(F)cc1C(=O)CCc1ccc(F)cc1.Cl` (racemic), the Activity entry in the data set with BJ, in the data set with Raji, in the data set on HepG2 and in the data set with HEK293 was “Non-toxic” each time. The selectivity ratio in data set [1] is more than 10.
As to `Cc1cccc(N2CCN(CC(O)COc3ccc(F)cc3C(=O)CCc3ccc(F)cc3)CC2)c1.Cl` (racemic), the Activity result in the data set with BJ, in the data set on Raji, with HepG2 and in the data set with HEK293 was “Non-toxic” in each case. For the same compound, the selectivity ratio in data set [1] is more than 10.
As to `Cl.O=C(CCc1ccc(F)cc1)c1cc(F)ccc1OCC(O)CN1CCN(c2ccc(C(F)(F)F)cc2)CC1` (racemic), the Activity result with BJ, in the data set with Raji, with HepG2 and in the data set with HEK293 was “Non-toxic” in each case. In addition, the selectivity ratio in data set [1] is more than 10.
As for `Cl.O=C(CCc1ccc(F)cc1)c1cc(F)ccc1OCC(O)CC1CCCC1` (racemic), the Activity result in the data set with BJ, with Raji, with HepG2 and in the data set with HEK293 was “Non-toxic” in each case. Further, the selectivity ratio in data set [1] was more than 10.
Take `Cl.O=C(CCc1ccccc1)c1ccccc1O`: the Activity result with BJ, in the data set on Raji, in the data set on HepG2 and in the data set with HEK293 was “Non-toxic” throughout. Further, in data set [1], the selectivity ratio was more than 10.
With `CCCCN(CCCC)CC(O)COc1ccc(F)cc1C(=O)CCc1ccc(F)cc1.Cl` (racemic), the Activity result in the data set on BJ, with Raji, in the data set with HepG2 and in the data set with HEK293 was “Non-toxic” throughout. Also, the selectivity ratio in data set [1] is more than 10.
Consider `Cl.O=C(CCc1ccccc1)c1ccccc1OCC(O)CN1CCN(c2ccc(O)cc2)CC1` (racemic), for which the Activity entry in the data set with BJ, in the data set on Raji, in the data set on HepG2 and in the data set with HEK293 was “Non-toxic” each time. Further, the selectivity ratio in data set [1] was more than 10.
As for `COc1ccc(N2CCN(CC(O)COc3ccccc3C(=O)CCc3ccccc3)CC2)cc1.Cl` (racemic), the Activity entry with BJ, with Raji, with HepG2 and in the data set with HEK293 was “Non-toxic” throughout. For the same compound, the selectivity ratio in data set [1] is more than 10.
Regarding `Cl.O=C(CCc1ccccc1)c1cc(F)ccc1OCC(O)CN1CCN(c2ccc(O)cc2)CC1` (racemic), the Activity entry in the data set with BJ, in the data set on Raji, with HepG2 and in the data set with HEK293 was “Non-toxic” throughout. Further, the selectivity ratio in data set [1] is more than 10.
With `Cl.O=C(CCc1ccc(F)cc1)c1ccccc1OCC(O)CN1CCCCC1` (racemic), the Activity entry in the data set on BJ, with Raji, with HepG2 and in the data set on HEK293 was “Non-toxic” in each case. For the same compound, the selectivity ratio in data set [1] was more than 10.
For `COc1cccc(N2CCN(CC(O)COc3ccc(F)cc3C(=O)CCc3ccc(F)cc3)CC2)c1.Cl` (racemic), the Activity entry in the data set on BJ, in the data set with Raji, with HepG2 and in the data set with HEK293 was “Non-toxic” each time. Also, the selectivity ratio in data set [1] was more than 10.
As for `CN1CCN(CC(O)COc2ccc(F)cc2C(=O)CCc2ccc(F)cc2)CC1.Cl` (racemic), the Activity result in the data set on BJ, with Raji, in the data set with HepG2 and in the data set on HEK293 was “Non-toxic” in each case. Further, in data set [1], the selectivity ratio is more than 10.
As to `Cc1cccc(N2CCN(CC(O)COc3ccccc3C(=O)CCc3ccc(F)cc3)CC2)c1.Cl` (racemic), the Activity result with BJ, in the data set on Raji, in the data set on HepG2 and in the data set with HEK293 was “Non-toxic” in each case. In data set [1], the selectivity ratio is more than 10.
With `Cl.O=C(CCc1ccc(F)cc1)c1ccccc1OCC(O)CN1CCC(c2ccccc2)CC1` (racemic), the Activity entry with BJ, with Raji, with HepG2 and with HEK293 was “Non-toxic” throughout. Moreover, in data set [1], the selectivity ratio was more than 10.
As for `Cl.O=C(CCc1ccc(F)cc1)c1ccccc1OCC(O)CN1CCN(c2ccc(C(F)(F)F)cc2)CC1` (racemic), the Activity result in the data set on BJ, with Raji, in the data set with HepG2 and with HEK293 was “Non-toxic” throughout. Further, in data set [1], the selectivity ratio was more than 10.
On to `CC(C)c1nccn1CC(O)COc1ccccc1C(=O)CCc1ccc(F)cc1.Cl` (racemic), for which the Activity entry in the data set with BJ, in the data set on Raji, in the data set on HepG2 and in the data set with HEK293 was “Non-toxic” each time. Further, the selectivity ratio in data set [1] was more than 10.
As to `Cl.O=C(CCc1ccccc1)c1cc(F)ccc1OCC(O)CN1CC[N+]([O-])(c2ccc(Cl)cc2)CC1` (racemic), the Activity result in the data set on BJ, in the data set with Raji, in the data set with HepG2 and in the data set on HEK293 was “Non-toxic” throughout. Further, the selectivity ratio in data set [1] is more than 10.
With `COc1ccccc1N1CCN(CC(O)COc2ccc(F)cc2C(=O)CCc2ccc(F)cc2)CC1.Cl` (racemic), the Activity entry in the data set with BJ, in the data set on Raji, in the data set on HepG2 and in the data set on HEK293 was “Non-toxic” each time. In data set [1], the selectivity ratio was more than 10.
As for `Cl.O=C(CCc1ccccc1)c1cc(F)ccc1OCC(O)CN1CCN(c2ccc(F)cc2)CC1` (racemic), the Activity result in the data set on BJ, with Raji, with HepG2 and in the data set on HEK293 was “Non-toxic” in each case. Moreover, the selectivity ratio in data set [1] is more than 10.
Turning to `Cl.O=C(/C=C/c1ccccc1)c1cc(F)ccc1O`, the Activity result in the data set with BJ, in the data set with Raji, with HepG2 and in the data set on HEK293 was “Non-toxic” in each case. Besides, in data set [1], the selectivity ratio was more than 10.
Turning to `Cl.O=C(CCc1ccccc1)c1cc(F)ccc1OCC(O)CN1CCC(Cc2ccccc2)CC1` (racemic), the Activity entry with BJ, in the data set on Raji, in the data set on HepG2 and in the data set with HEK293 was “Non-toxic” throughout. The selectivity ratio in data set [1] is more than 10.
On to `Cl.O=C(CCc1ccc(F)cc1)c1cc(F)ccc1OCC(O)CN1CCN(C(c2ccccc2)c2ccccc2)CC1` (racemic), for which the Activity entry in the data set on BJ, with Raji, with HepG2 and in the data set with HEK293 was “Non-toxic” in each case. In addition, the selectivity ratio in data set [1] was more than 10.
For `CC(C)N(CC(O)COc1ccccc1C(=O)CCc1ccccc1)c1ccccc1.Cl` (racemic), the Activity entry in the data set on BJ, with Raji, with HepG2 and in the data set with HEK293 was “Non-toxic” in each case. Further, in data set [1], the selectivity ratio was more than 10.
`Cl.O=C(CCc1ccc(F)cc1)c1ccccc1OCC(O)CN1CCC(Cc2ccccc2)CC1` (racemic): the Activity entry in the data set with BJ, with Raji, with HepG2 and with HEK293 was “Non-toxic” throughout. In data set [1], the selectivity ratio was more than 10.
`Cl.O=C(CCc1ccccc1)c1ccccc1OCC(O)CNCc1ccccc1` (racemic): the Activity result in the data set with BJ, in the data set on Raji, in the data set with HepG2 and with HEK293 was “Non-toxic” each time. In addition, in data set [1], the selectivity ratio was more than 10.
As to `COc1cccc(N(CC(O)COc2ccc(F)cc2C(=O)CCc2ccccc2)c2ccccc2)c1.Cl` (racemic), the Activity result in the data set with BJ, with Raji, with HepG2 and in the data set with HEK293 was “Non-toxic” throughout. Moreover, the selectivity ratio in data set [1] was more than 10.
`Cl.O=C(CCc1ccccc1)c1ccccc1OCC(O)CN1CCN(c2ccc(F)cc2)CC1` (racemic): the Activity result with BJ, with Raji, in the data set with HepG2 and with HEK293 was “Non-toxic” throughout. Moreover, the selectivity ratio in data set [1] is more than 10.
Turning to `Cl.O=C(CCc1ccccc1)c1cc(F)ccc1OCC(O)CN1CCN(c2ccc([N+](=O)[O-])cc2)CC1` (racemic), the Activity result with BJ, in the data set on Raji, in the data set on HepG2 and in the data set on HEK293 was “Non-toxic” throughout. In addition, in data set [1], the selectivity ratio was more than 10.
